Series [1] concerns the target T1, Notch transcriptional activation complex (NTC) (Homo sapiens, UniProt P46531+Q06330).
T1 construct: made in house; host or cells: SF21 insect cells (baculovirus)
Briefly: Notch complex assembly assay (NTC AlphaScreen assay). It counts as binding. The method, then:
Notch Complex Assembly Assay
All recombinant proteins were expressed using baculovirus expression vectors in SF21 cells and purified. Unless otherwise stated, all assays contained 125 fmol of double stranded oligonucleotide, CSL, Notch1 and MAML1 proteins. Reactions were carried out in Tris-buffered saline with 0.1% Tween (“TBS-T”) buffer containing 0.2% bovine serum albumin (“BSA”) and 100 μg/mL salmon sperm DNA. Briefly, the Notch complex was assembled on a biotinylated double stranded (“DS”) oligonucleotide harboring one CSL binding site (5′-[…]-3′). Complex assembly was quantitated using ALPHASCREEN technology (Perkin Elmer). Proteins in the complexes were detected using specific antibodies to either MAML1 (Cell signaling, D3K7B), Notch1 (Abcam, 52627) or CSL (anti-His, Abcam 18184). Streptavidin conjugated […] beads (Perkin Elmer, 6760002) were used to bind the DS oligonucleotide, and Protein-A conjugated […] beads (Perkin Elmer, 6760137) were used to detect antibody-coated proteins. For screening compounds, Notch transcriptional activation complex (“NTC”) components were added to wells that already contained the inhibitor to be assayed and allowed to incubate for 30 minutes. The ALPHASCREEN plate (Perkin Elmer, 6008350) was then read on an Envision Plate reader (Perkin Elmer) as specified by the manufacturer.
Background: Alpha assays give light when donor and acceptor beads are brought close together.

Series [2] in a line: physchem.
Series [3] can be described thus: Pharmacokinetic study in mouse plasma. It counts as in vivo. The note with it: iv, i.v. 10 mg/kg.
In series [4] the test system is OE33 cell line (esophageal adenocarcinoma). Briefly: Tumor sphere viability, MTT assay, OE33. Type of series: cell-based, human. Conditions: OE33, 72 hours of treatment. The method, then:
FIG. 4A depicts a graph showing the ability of NADi-351 to inhibit the tumor sphere viability of the OE33 cell line (esophageal adenocarcinoma) after 72 hours of treatment using the Methylthiazolyldiphenyl-tetrazolium bromide (“MTT”) assay.
The compounds and salts disclosed herein can inhibit the viability of tumor spheres and decrease Notch target gene expression.
OE33 cells, human esophageal adenocarcinoma cell lines, were obtained from the European Collection of Cell Culture. SUM-149 and SUM-159, breast cancer cell lines, were obtained from Dr. Joyce Slingerland at the University of Miami School of Medicine. The following cell lines were obtained directly from the ATCC: 786-0, a human renal cell adenocarcinoma cell line; HT-1080, a human fibrosarcoma cell line; MCF-7, a mammary gland adenocarcinoma; T47D, a human mammary ductal carcinoma cell line; and H-23 a non-small cell lung adenocarcinoma cell line. All cell lines were propagated in growth media as specified.
(Tetrazolium dyes change colour on reduction, which living cells bring about.)

The source of these data is patent US12275725B2, “Inhibitors of the notch transcriptional activation complex and methods for use of the same” (University of Miami, priority 2019, dated 2025).

Values after ≈ are worked out from the molar mass of the structure shown.

The term IC50 denotes the concentration at which inhibition is half-maximal. In general, solubility refers to the concentration that dissolves in the medium under given conditions. Broadly, the AUC(0-t) is exposure summed from dosing to a finite time, without extrapolation to infinity.

T1 sequence (P46531 1754-2555 limits assumed): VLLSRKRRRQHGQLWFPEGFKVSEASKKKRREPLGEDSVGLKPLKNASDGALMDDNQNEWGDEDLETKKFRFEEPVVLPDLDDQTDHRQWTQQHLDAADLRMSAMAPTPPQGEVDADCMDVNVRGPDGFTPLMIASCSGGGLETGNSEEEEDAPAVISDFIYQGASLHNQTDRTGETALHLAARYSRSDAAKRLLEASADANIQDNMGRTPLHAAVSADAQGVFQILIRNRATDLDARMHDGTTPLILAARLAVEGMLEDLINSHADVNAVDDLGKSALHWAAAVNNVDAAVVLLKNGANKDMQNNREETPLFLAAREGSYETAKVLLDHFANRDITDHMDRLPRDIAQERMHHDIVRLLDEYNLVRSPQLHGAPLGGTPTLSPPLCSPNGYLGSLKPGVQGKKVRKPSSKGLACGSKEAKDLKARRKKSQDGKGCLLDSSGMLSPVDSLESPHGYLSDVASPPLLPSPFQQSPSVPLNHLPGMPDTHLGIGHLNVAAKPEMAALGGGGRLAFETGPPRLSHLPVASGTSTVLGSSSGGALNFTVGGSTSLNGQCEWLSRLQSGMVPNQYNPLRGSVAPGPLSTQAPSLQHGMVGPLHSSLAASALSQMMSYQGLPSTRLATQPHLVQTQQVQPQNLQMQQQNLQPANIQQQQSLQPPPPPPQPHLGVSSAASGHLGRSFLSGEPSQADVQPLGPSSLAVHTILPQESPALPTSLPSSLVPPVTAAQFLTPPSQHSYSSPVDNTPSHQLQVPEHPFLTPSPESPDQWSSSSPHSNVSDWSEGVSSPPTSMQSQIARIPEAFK
T1 sequence (Q06330 whole entry): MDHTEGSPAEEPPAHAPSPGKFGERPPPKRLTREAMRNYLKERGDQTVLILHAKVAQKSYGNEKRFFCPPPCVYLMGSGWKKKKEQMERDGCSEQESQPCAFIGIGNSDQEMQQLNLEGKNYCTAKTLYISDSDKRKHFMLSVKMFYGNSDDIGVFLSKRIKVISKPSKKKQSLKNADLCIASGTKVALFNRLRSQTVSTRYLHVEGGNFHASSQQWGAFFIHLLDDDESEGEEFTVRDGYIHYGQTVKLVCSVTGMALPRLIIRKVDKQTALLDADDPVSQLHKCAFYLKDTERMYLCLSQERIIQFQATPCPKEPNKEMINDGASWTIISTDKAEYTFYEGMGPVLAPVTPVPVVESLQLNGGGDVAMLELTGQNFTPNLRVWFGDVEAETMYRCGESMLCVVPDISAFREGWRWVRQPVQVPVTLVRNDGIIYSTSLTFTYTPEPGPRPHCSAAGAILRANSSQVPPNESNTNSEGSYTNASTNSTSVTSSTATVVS

Regarding `COc1cc(/C(C)=C2\SC(=S)N(CC(=O)N(C)C)C2=O)cc(F)c1OCc1nnc[nH]1` [NADi-351, (Z)-2-(5-(1-(4-((1H-1,2,4-triazol-3-yl)methoxy)-3-fluoro-5-methoxyphenyl)ethylidene)-4-oxo-2-thioxothiazolidin-3-yl)-N,N-dimethylacetamide], the IC50 in series [1] (Table E, NTC AlphaScreen assay, read-out: *IC50) amounted to 2.4 nM. The “increase in potency over NADi-260” value in series [1] (methylated at the alkene vs NADi-260) worked out at 10 fold. Moreover, the solubility was 158 ± 7.7 µM (≈ 73.3 µg/mL) in series [2] (pH 1.2, simulated gastric fluid); 150 ± 4.1 µM (≈ 69.9 µg/mL) in series [2] (pH 6.5, fassif); 155 ± 9.6 µM (≈ 72 µg/mL) in series [2] (pH 7.4, aqueous buffer). In series [3], this compound had an AUC(0-t) of 4570 ng·h/mL. Further, the Cmax in series [3] (back extrapolated, read-out: *C0/Cmax) was 15900 ng/mL. Moreover, in series [4], the “decrease of tumor sphere viability” value is “about 75%”.
